Laboratory results from the NIST ThermoML archive (doi:10.1016/j.jct.2005.04.015).
Numbers after ± are expanded uncertainties.

Assay: excess molar enthalpy (molar enthalpy of mixing); xn = mol fraction of the nth substance listed
Conditions: Liquid, Flow calorimetry

CCOC=O [ethyl methanoate] + CCCO
excess molar enthalpy [kcal/mol]
Conditions | 298.15 K | 308.15 K
5000 kPa, x1 = 0.0488 | 0.0707 ± 0.00155 | –
5000 kPa, x1 = 0.1003 | 0.15 ± 0.00335 | –
5000 kPa, x1 = 0.1515 | 0.212 ± 0.00454 | –
5000 kPa, x1 = 0.1993 | 0.258 ± 0.0055 | –
5000 kPa, x1 = 0.2498 | 0.297 ± 0.00645 | –
5000 kPa, x1 = 0.3 | 0.324 ± 0.00693 | –
5000 kPa, x1 = 0.3498 | 0.344 ± 0.00741 | –
5000 kPa, x1 = 0.3992 | 0.359 ± 0.00765 | –
5000 kPa, x1 = 0.4512 | 0.363 ± 0.00789 | –
5000 kPa, x1 = 0.5 | 0.361 ± 0.00765 | –
5000 kPa, x1 = 0.5513 | 0.353 ± 0.00765 | –
5000 kPa, x1 = 0.5995 | 0.341 ± 0.00717 | –
5000 kPa, x1 = 0.6501 | 0.323 ± 0.00693 | –
5000 kPa, x1 = 0.7003 | 0.297 ± 0.00645 | –
5000 kPa, x1 = 0.7502 | 0.265 ± 0.00574 | –
5000 kPa, x1 = 0.7998 | 0.225 ± 0.00478 | –
5000 kPa, x1 = 0.849 | 0.181 ± 0.00382 | –
5000 kPa, x1 = 0.9006 | 0.124 ± 0.00263 | –
5000 kPa, x1 = 0.9491 | 0.0666 ± 0.00148 | –
10000 kPa, x1 = 0.0487 | 0.0792 ± 0.00174 | 0.0703 ± 0.00155
10000 kPa, x1 = 0.1 | 0.158 ± 0.00335 | –
10000 kPa, x1 = 0.1511 | 0.22 ± 0.00478 | 0.221 ± 0.00478
10000 kPa, x1 = 0.1988 | 0.266 ± 0.00574 | 0.269 ± 0.00574
10000 kPa, x1 = 0.2492 | 0.303 ± 0.00645 | 0.309 ± 0.00669
10000 kPa, x1 = 0.2993 | 0.331 ± 0.00717 | 0.34 ± 0.00717
10000 kPa, x1 = 0.349 | 0.35 ± 0.00741 | 0.361 ± 0.00765
10000 kPa, x1 = 0.4013 | 0.363 ± 0.00789 | 0.376 ± 0.00813
10000 kPa, x1 = 0.4504 | 0.37 ± 0.00789 | 0.383 ± 0.00813
10000 kPa, x1 = 0.4992 | 0.368 ± 0.00789 | 0.382 ± 0.00813
10000 kPa, x1 = 0.5505 | 0.361 ± 0.00765 | 0.374 ± 0.00789
10000 kPa, x1 = 0.5987 | 0.348 ± 0.00741 | 0.359 ± 0.00765
10000 kPa, x1 = 0.6493 | 0.329 ± 0.00693 | 0.337 ± 0.00717
10000 kPa, x1 = 0.6996 | 0.302 ± 0.00645 | 0.311 ± 0.00669
10000 kPa, x1 = 0.7496 | 0.27 ± 0.00574 | 0.276 ± 0.00598
10000 kPa, x1 = 0.7993 | 0.232 ± 0.00502 | 0.234 ± 0.00502
10000 kPa, x1 = 0.8513 | 0.184 ± 0.00406 | 0.185 ± 0.00406
10000 kPa, x1 = 0.9003 | 0.132 ± 0.00287 | 0.134 ± 0.00287
10000 kPa, x1 = 0.949 | 0.072 ± 0.0016 | 0.0643 ± 0.00143

CCOC=O [ethyl methanoate] + CCCCCO
298.15 K
Conditions | excess molar enthalpy [kcal/mol]
5000 kPa, x1 = 0.0502 | 0.0619 ± 0.00139
5000 kPa, x1 = 0.0995 | 0.145 ± 0.00311
5000 kPa, x1 = 0.1505 | 0.22 ± 0.00478
5000 kPa, x1 = 0.2006 | 0.279 ± 0.00598
5000 kPa, x1 = 0.2494 | 0.324 ± 0.00693
5000 kPa, x1 = 0.2998 | 0.361 ± 0.00765
5000 kPa, x1 = 0.3487 | 0.388 ± 0.00837
5000 kPa, x1 = 0.3992 | 0.404 ± 0.0086
5000 kPa, x1 = 0.4514 | 0.409 ± 0.0086
5000 kPa, x1 = 0.4984 | 0.41 ± 0.00884
5000 kPa, x1 = 0.5503 | 0.406 ± 0.0086
5000 kPa, x1 = 0.6002 | 0.392 ± 0.00837
5000 kPa, x1 = 0.6516 | 0.372 ± 0.00789
5000 kPa, x1 = 0.7007 | 0.346 ± 0.00741
5000 kPa, x1 = 0.7513 | 0.312 ± 0.00669
5000 kPa, x1 = 0.7992 | 0.269 ± 0.00574
5000 kPa, x1 = 0.8484 | 0.215 ± 0.00454
5000 kPa, x1 = 0.899 | 0.151 ± 0.00335
5000 kPa, x1 = 0.951 | 0.0755 ± 0.00167
10000 kPa, x1 = 0.05 | 0.0947 ± 0.00208
10000 kPa, x1 = 0.0992 | 0.177 ± 0.00382
10000 kPa, x1 = 0.1501 | 0.247 ± 0.00526
10000 kPa, x1 = 0.2 | 0.303 ± 0.00645
10000 kPa, x1 = 0.2487 | 0.345 ± 0.00741
10000 kPa, x1 = 0.2991 | 0.376 ± 0.00813
10000 kPa, x1 = 0.3511 | 0.403 ± 0.0086
10000 kPa, x1 = 0.3984 | 0.418 ± 0.00884
10000 kPa, x1 = 0.4505 | 0.426 ± 0.00908
10000 kPa, x1 = 0.501 | 0.426 ± 0.00908
10000 kPa, x1 = 0.5495 | 0.419 ± 0.00884
10000 kPa, x1 = 0.5994 | 0.406 ± 0.0086
10000 kPa, x1 = 0.6508 | 0.382 ± 0.00813
10000 kPa, x1 = 0.7 | 0.353 ± 0.00765
10000 kPa, x1 = 0.7506 | 0.311 ± 0.00669
10000 kPa, x1 = 0.7987 | 0.268 ± 0.00574
10000 kPa, x1 = 0.848 | 0.217 ± 0.00454
10000 kPa, x1 = 0.8987 | 0.154 ± 0.00335
10000 kPa, x1 = 0.9509 | 0.0804 ± 0.00177

CCOC=O [ethyl methanoate] + CCC(C)O
excess molar enthalpy [kcal/mol]
Conditions | 298.15 K | 308.15 K
5000 kPa, x1 = 0.1504 | 0.234 ± 0.00502 | –
5000 kPa, x1 = 0.1997 | 0.29 ± 0.00621 | –
5000 kPa, x1 = 0.2497 | 0.336 ± 0.00717 | –
5000 kPa, x1 = 0.3005 | 0.373 ± 0.00789 | –
5000 kPa, x1 = 0.3501 | 0.4 ± 0.0086 | –
5000 kPa, x1 = 0.4005 | 0.418 ± 0.00884 | –
5000 kPa, x1 = 0.4497 | 0.429 ± 0.00908 | –
5000 kPa, x1 = 0.4996 | 0.432 ± 0.00932 | –
5000 kPa, x1 = 0.5502 | 0.427 ± 0.00908 | –
5000 kPa, x1 = 0.5995 | 0.414 ± 0.00884 | –
5000 kPa, x1 = 0.6496 | 0.394 ± 0.00837 | –
5000 kPa, x1 = 0.7003 | 0.365 ± 0.00789 | –
5000 kPa, x1 = 0.7496 | 0.328 ± 0.00693 | –
5000 kPa, x1 = 0.7996 | 0.284 ± 0.00598 | –
5000 kPa, x1 = 0.8996 | 0.156 ± 0.00335 | –
5000 kPa, x1 = 0.9494 | 0.0812 ± 0.00179 | –
10000 kPa, x1 = 0.0492 | 0.0843 ± 0.00184 | –
10000 kPa, x1 = 0.0496 | – | 0.101 ± 0.0022
10000 kPa, x1 = 0.0992 | 0.17 ± 0.00359 | –
10000 kPa, x1 = 0.1 | – | 0.197 ± 0.0043
10000 kPa, x1 = 0.15 | 0.243 ± 0.00526 | –
10000 kPa, x1 = 0.1513 | – | 0.276 ± 0.00598
10000 kPa, x1 = 0.1985 | 0.3 ± 0.00645 | –
10000 kPa, x1 = 0.2007 | – | 0.337 ± 0.00717
10000 kPa, x1 = 0.2509 | 0.348 ± 0.00741 | 0.386 ± 0.00837
10000 kPa, x1 = 0.2992 | – | 0.422 ± 0.00908
10000 kPa, x1 = 0.301 | 0.383 ± 0.00813 | –
10000 kPa, x1 = 0.3487 | 0.407 ± 0.0086 | –
10000 kPa, x1 = 0.351 | – | 0.451 ± 0.00956
10000 kPa, x1 = 0.4004 | 0.425 ± 0.00908 | –
10000 kPa, x1 = 0.4008 | – | 0.47 ± 0.01
10000 kPa, x1 = 0.4495 | 0.436 ± 0.00932 | –
10000 kPa, x1 = 0.4514 | – | 0.479 ± 0.0103
10000 kPa, x1 = 0.4994 | 0.439 ± 0.00932 | –
10000 kPa, x1 = 0.4999 | – | 0.481 ± 0.0103
10000 kPa, x1 = 0.5491 | – | 0.475 ± 0.01
10000 kPa, x1 = 0.5501 | 0.433 ± 0.00932 | –
10000 kPa, x1 = 0.599 | – | 0.46 ± 0.0098
10000 kPa, x1 = 0.6015 | 0.42 ± 0.00908 | –
10000 kPa, x1 = 0.6497 | – | 0.436 ± 0.00932
10000 kPa, x1 = 0.6502 | 0.402 ± 0.0086 | –
10000 kPa, x1 = 0.6996 | 0.373 ± 0.00789 | –
10000 kPa, x1 = 0.7011 | – | 0.405 ± 0.0086
10000 kPa, x1 = 0.7497 | 0.331 ± 0.00717 | –
10000 kPa, x1 = 0.7502 | – | 0.363 ± 0.00789
10000 kPa, x1 = 0.8 | – | 0.314 ± 0.00669
10000 kPa, x1 = 0.8006 | 0.284 ± 0.00598 | –
10000 kPa, x1 = 0.8485 | 0.223 ± 0.00478 | –
10000 kPa, x1 = 0.8506 | – | 0.255 ± 0.0055
10000 kPa, x1 = 0.8986 | – | 0.185 ± 0.00406
10000 kPa, x1 = 0.9008 | 0.154 ± 0.00335 | –
10000 kPa, x1 = 0.95 | 0.0895 ± 0.00196 | –
10000 kPa, x1 = 0.9506 | – | 0.0966 ± 0.0021
